Changes are numbered by the printed parent chain. Values belong to the compound of their own block, whether it stands above or below them.
How the values were obtained:
human CYP51 = target: T1, human CYP51 (Homo sapiens, UniProt Q16850); experiment: CYP51 inhibitor binding assay
T1 sequence (Q16850 1-509): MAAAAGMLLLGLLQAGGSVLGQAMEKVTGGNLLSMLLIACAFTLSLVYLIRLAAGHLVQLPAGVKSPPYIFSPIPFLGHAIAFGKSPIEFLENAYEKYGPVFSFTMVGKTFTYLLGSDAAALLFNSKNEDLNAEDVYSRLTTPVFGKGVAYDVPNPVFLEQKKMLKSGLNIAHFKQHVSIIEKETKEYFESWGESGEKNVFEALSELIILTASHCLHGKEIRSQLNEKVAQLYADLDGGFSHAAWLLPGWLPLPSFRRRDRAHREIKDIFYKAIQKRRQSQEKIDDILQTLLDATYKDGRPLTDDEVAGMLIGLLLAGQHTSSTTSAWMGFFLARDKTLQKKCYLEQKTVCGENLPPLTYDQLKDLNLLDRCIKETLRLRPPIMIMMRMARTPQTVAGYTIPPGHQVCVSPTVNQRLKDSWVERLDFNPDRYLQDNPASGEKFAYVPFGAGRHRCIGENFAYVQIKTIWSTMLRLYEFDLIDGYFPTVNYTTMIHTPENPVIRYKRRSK

human CYP51 (WT) = target: T2, human CYP51 (WT) (Homo sapiens, UniProt Q16850); experiment: CYP51 activity assay, inhibition of lanosterol 14α-demethylation; assay type: biochemical; settings: WT enzyme, 1 h reaction
T2 sequence (Q16850 1-509): T1 sequence (Q16850 1-509)

[1] = target: T3, T318I mutant of human CYP51 (Homo sapiens, UniProt Q16850, T324I); experiment: CYP51 activity assay, inhibition of the T318I mutant; assay type: biochemical
T3 sequence (Q16850 1-509 T324I): T1 sequence (Q16850 1-509) with T324I

[2] = target: T3, T318I mutant of human CYP51; experiment: CYP51 inhibitor binding assay, T318I mutant
[3] = quoted in legend of Figure 1, reference not given; cited from earlier work

- Soret band maximum (human CYP51; inhibitor-bound human CYP51, red shift from 417 nm): 425 nm
SMILES: O=C(N[C@@H](Cn1ccnc1)c1ccc(-c2ccc(F)cc2)cc1F)c1ccc(-c2nnc(-c3ccccc3)o2)cc1 [VFV]

- Kd (human CYP51): 4.7 µM
- IC50 [1]: > 25 µM
- Kd [2]: 0.4 µM
- increase of binding affinity for the mutant ([2]; T318I vs WT enzyme): approximately 12 fold
SMILES: O=C(N[C@@H](Cn1ccnc1)c1ccc(Cl)cc1Cl)c1ccc(-c2nnc(-c3ccccc3)o2)cc1 [VNI, (R)-N-(1-(2,4-dichlorophenyl)-2-(1 H-imidazol-1-yl)ethyl)-4-(5-phenyl-1,3,4-oxadiazol-2-yl)benzamide]
- inhibition of human CYP51 activity (in words) (human CYP51 (WT)): does not inhibit the WT human CYP51 at all

SMILES: C[C@@H](NCCCc1cccc(C(F)(F)F)c1)c1cccc2ccccc12 [cinacalcet]
- log P [3]: 6.5

SMILES: CCC(C)n1ncn(-c2ccc(N3CCN(c4ccc(OCC5COC(Cn6cncn6)(c6ccc(Cl)cc6Cl)O5)cc4)CC3)cc2)c1=O (stereo not drawn) [itraconazole]
- log P [3]: 6.8

SMILES: CC[C@@H]([C@H](C)O)n1ncn(-c2ccc(N3CCN(c4ccc(OC[C@@H]5CO[C@@](Cn6cncn6)(c6ccc(F)cc6F)C5)cc4)CC3)cc2)c1=O [posaconazole]
- log P [3]: 5.5

— PMC6881533 (Journal of medicinal chemistry, 2019)
